Inconclusive results and toxic doses are left out. No stated cut-off is given here; in the data, active means T/C of 150% or more; inactive means T/C below 125%.
Test system: L1210 leukemia ip in BDF1 mice, survival T/C
Assay: NCI In Vivo Anticancer Drug Screen. Data for tumor model L1210 Leukemia (intraperitoneal) in B6D2F1 (BDF1) mice
Details: endpoint: mean survival time, higher = longer survival
Method in brief: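 Tumor cells were implanted, animals were treated, and survival was followed. The result divides the treated measurement by the vehicle-control measurement.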

[1] = dose: 100.0 mg/kg/injection, schedule: Q01DX001 (ip), vehicle: saline
[2] = dose: 100.0 mg/kg/injection, schedule: Q04DX003 (ip), vehicle: saline with Tween-80
[3] = dose: 200.0 mg/kg/injection, schedule: Q04DX003 (ip), vehicle: saline with Tween-80
[4] = dose: 100.0 mg/kg/injection, schedule: Q01DX009 (ip), vehicle: saline with Tween-80

Measured: T/C

COc1ccc(CCN(C)C2c3ccccc3C=Cc3ccccc32)cc1OC
inactive: dose: 100.0 mg/kg/injection, schedule: Q01DX001 (ip), vehicle: saline with Tween-80 103 % of control | dose: 200.0 mg/kg/injection, schedule: Q01DX001 (ip), vehicle: saline with Tween-80 107 % of control | dose: 400.0 mg/kg/injection, schedule: Q01DX001 (ip), vehicle: saline with Tween-80 98 % of control

CC(=O)O[C@@H]1C[C@@]2(C)[C@@H]3CC=C4[C@@H](C[C@H](O)C(=O)C4(C)C)[C@]3(C)C(=O)C[C@]2(C)[C@H]1[C@@](C)(O)C(=O)/C=C/C(C)(C)OC(C)=O
inactive: dose: 50.0 mg/kg/injection, schedule: Q01DX001 (ip), vehicle: saline 102 % of control | [1] 107 % of control

Oc1ccc(Cl)cc1/C=N/Nc1nnc(N/N=C/c2cc(Cl)ccc2O)c2ccccc12
inactive: dose: 50.0 mg/kg/injection, schedule: Q01DX001 (ip), vehicle: carboxymethylcellulose (CMC) 90 % of control | dose: 100.0 mg/kg/injection, schedule: Q01DX001 (ip), vehicle: carboxymethylcellulose (CMC) 93 % of control | dose: 200.0 mg/kg/injection, schedule: Q01DX001 (ip), vehicle: carboxymethylcellulose (CMC) 95 % of control | dose: 400.0 mg/kg/injection, schedule: Q01DX001 (ip), vehicle: carboxymethylcellulose (CMC) 95 % of control

CC(C)N(C(=O)Nc1cccc(C(F)(F)F)c1)C1CCCCC1
inactive: dose: 100.0 mg/kg/injection, schedule: Q01DX009 (ip), vehicle: gum acacia 90 % of control | dose: 200.0 mg/kg/injection, schedule: Q01DX009 (ip), vehicle: gum acacia 98 % of control | dose: 400.0 mg/kg/injection, schedule: Q01DX009 (ip), vehicle: gum acacia 88 % of control

Cc1cc(C)cc(OCC2C(COC(=O)c3cccc(Cl)c3)c3ccccc3N2C)c1 (stereo not drawn)
inactive: dose: 100.0 mg/kg/injection, schedule: Q01DX009 (ip), vehicle: Klucel (hydroxypropylcellulose) (HPC) 89 % of control | dose: 200.0 mg/kg/injection, schedule: Q01DX009 (ip), vehicle: Klucel (hydroxypropylcellulose) (HPC) 94 % of control

COc1ccc2c(c1C)CCC1(CO)CC(C)=CCC21 (stereo not drawn)
inactive: dose: 100.0 mg/kg/injection, schedule: Q01DX009 (ip), vehicle: saline sonified 93 % of control | dose: 200.0 mg/kg/injection, schedule: Q01DX009 (ip), vehicle: saline sonified 94 % of control | dose: 400.0 mg/kg/injection, schedule: Q01DX009 (ip), vehicle: saline sonified 91 % of control

Cc1ncc(CO)c(/C=N/OCc2ccc(OCc3ccccc3)cc2)c1O
inactive: [2] 102 % of control | [3] 100 % of control

C=CCOC(=O)CCCCC(=O)OCC=C
inactive: [4] 94 % of control

CC(=O)[C@H]1CC[C@H]2[C@@H]3CCC4=CC(=O)[C@H](C)C[C@]4(C)[C@H]3C(=O)C[C@]12C
inactive: dose: 200.0 mg/kg/injection, schedule: Q01DX001 (sc), vehicle: steriod suspending solution 98 % of control | dose: 200.0 mg/kg/injection, schedule: Q01DX009 (sc), vehicle: steriod suspending solution 100 % of control | dose: 400.0 mg/kg/injection, schedule: Q01DX001 (sc), vehicle: steriod suspending solution 104 % of control | dose: 400.0 mg/kg/injection, schedule: Q01DX009 (sc), vehicle: steriod suspending solution 100 % of control | dose: 600.0 mg/kg/injection, schedule: Q01DX001 (sc), vehicle: steriod suspending solution 96 % of control | dose: 600.0 mg/kg/injection, schedule: Q01DX009 (sc), vehicle: steriod suspending solution 92 % of control | dose: 800.0 mg/kg/injection, schedule: Q01DX001 (sc), vehicle: steriod suspending solution 96 % of control | dose: 800.0 mg/kg/injection, schedule: Q01DX009 (sc), vehicle: steriod suspending solution 92 % of control

Clc1nc(Cl)c(CBr)c(Cl)n1
inactive: dose: 1.0 mg/kg/injection, schedule: Q01DX Z (ip), vehicle: carboxymethylcellulose (CMC) 96 % of control | dose: 2.0 mg/kg/injection, schedule: Q01DX Z (ip), vehicle: carboxymethylcellulose (CMC) 96 % of control | dose: 4.0 mg/kg/injection, schedule: Q01DX Z (ip), vehicle: carboxymethylcellulose (CMC) 96 % of control | dose: 8.0 mg/kg/injection, schedule: Q01DX Z (ip), vehicle: carboxymethylcellulose (CMC) 94 % of control | dose: 10.0 mg/kg/injection, schedule: Q01DX001 (ip), vehicle: carboxymethylcellulose (CMC) 96 % of control | dose: 16.0 mg/kg/injection, schedule: Q01DX009 (ip), vehicle: carboxymethylcellulose (CMC) 103 % of control | dose: 20.0 mg/kg/injection, schedule: Q01DX001 (ip), vehicle: carboxymethylcellulose (CMC) 93 % of control | dose: 40.0 mg/kg/injection, schedule: Q01DX001 (ip), vehicle: carboxymethylcellulose (CMC) 93 % of control

CC1(C)C2CC3C(=CCCC3C(=O)O)C1C2 (stereo not drawn)
inactive: dose: 100.0 mg/kg/injection, schedule: Q04DX003 (ip), vehicle: Klucel (hydroxypropylcellulose) (HPC) 97 % of control | dose: 200.0 mg/kg/injection, schedule: Q04DX003 (ip), vehicle: Klucel (hydroxypropylcellulose) (HPC) 103 % of control | dose: 400.0 mg/kg/injection, schedule: Q04DX003 (ip), vehicle: Klucel (hydroxypropylcellulose) (HPC) 95 % of control

COC1OC(CO)C(N(C)C(C)=O)C1O (stereo not drawn)
inactive: [1] 94 % of control | dose: 200.0 mg/kg/injection, schedule: Q01DX001 (ip), vehicle: saline 103 % of control | dose: 400.0 mg/kg/injection, schedule: Q01DX001 (ip), vehicle: saline 97 % of control

COc1cc2ccc(/C(C)=N/OC(C)=O)cc2cc1OC
inactive: [2] 100 % of control | [3] 100 % of control | dose: 400.0 mg/kg/injection, schedule: Q04DX003 (ip), vehicle: saline with Tween-80 106 % of control

COC(=O)C1C2C=CC(O2)C1C(=O)OC (stereo not drawn)
inactive: dose: 100.0 mg/kg/injection, schedule: Q01DX009 (ip), vehicle: carboxymethylcellulose (CMC) 98 % of control | dose: 100.0 mg/kg/injection, schedule: Q01DX009 (ip), vehicle: other 101 % of control | dose: 200.0 mg/kg/injection, schedule: Q01DX009 (ip), vehicle: carboxymethylcellulose (CMC) 102 % of control | dose: 200.0 mg/kg/injection, schedule: Q01DX009 (ip), vehicle: other 102 % of control | dose: 400.0 mg/kg/injection, schedule: Q01DX009 (ip), vehicle: carboxymethylcellulose (CMC) 96 % of control | dose: 400.0 mg/kg/injection, schedule: Q01DX009 (ip), vehicle: other 101 % of control

Clc1ccc(Cl)c2c(Br)cncc12
inactive: dose: 100.0 mg/kg/injection, schedule: Q01DX001 (ip), vehicle: other 98 % of control | dose: 200.0 mg/kg/injection, schedule: Q01DX001 (ip), vehicle: other 98 % of control | dose: 400.0 mg/kg/injection, schedule: Q01DX001 (ip), vehicle: other 93 % of control

Cc1ccccc1-n1cccc1C(=O)O
inactive: dose: 100.0 mg/kg/injection, schedule: Q04DX002 (ip), vehicle: Klucel (hydroxypropylcellulose) (HPC) 89 % of control | dose: 200.0 mg/kg/injection, schedule: Q04DX002 (ip), vehicle: Klucel (hydroxypropylcellulose) (HPC) 96 % of control | dose: 400.0 mg/kg/injection, schedule: Q04DX002 (ip), vehicle: Klucel (hydroxypropylcellulose) (HPC) 86 % of control

FC(F)(F)C(F)(F)C1=NS1(F)C(F)(C(F)(F)F)C(F)(F)F (stereo not drawn)
inactive: dose: 100.0 mg/kg/injection, schedule: Q01DX001 (ip), vehicle: acetone 100 % of control | dose: 200.0 mg/kg/injection, schedule: Q01DX001 (ip), vehicle: acetone 97 % of control | dose: 400.0 mg/kg/injection, schedule: Q01DX001 (ip), vehicle: acetone 97 % of control

C/C(=C\Cn1ccccc1=O)CCC(=O)O
inactive: dose: 100.0 mg/kg/injection, schedule: Q01DX009 (ip), vehicle: water 100 % of control | dose: 100.0 mg/kg/injection, schedule: Q04DX003 (ip), vehicle: other 94 % of control | dose: 200.0 mg/kg/injection, schedule: Q01DX009 (ip), vehicle: water 97 % of control | dose: 200.0 mg/kg/injection, schedule: Q04DX003 (ip), vehicle: other 98 % of control | dose: 400.0 mg/kg/injection, schedule: Q01DX009 (ip), vehicle: water 96 % of control | dose: 400.0 mg/kg/injection, schedule: Q04DX003 (ip), vehicle: other 89 % of control

CCCCCC1SC1CC1SC1CCCCCCCC(=O)NCCCOCCOCCOCC (stereo not drawn)
inactive: [4] 121 % of control | dose: 200.0 mg/kg/injection, schedule: Q01DX009 (ip), vehicle: saline with Tween-80 104 % of control
